Measurements: patent US4636513A, “Isoxazole derivatives and medicaments containing these compounds” (Hoechst Aktiengesellschaft, priority 1984, dated 1987)
In brackets after ≈: the same amount, converted by molar mass. Like-named read-outs stand apart in the source and are kept apart here.

What was measured:
[1] = tested on: prostaglandin synthetases; details: cited from earlier work
[2] = Gastrointestinal ulcerogenicity; type: in vivo, rat (male Sprague-Dawley); details: in vivo, po, rat
Protocol: (§1) In this test on male Sprague-Dawley rats with a body weight of between 200 and 300 g, an increased sensitivity of the gastric mucosa toward the ulcerogenic action of non-steroid antiflammatories was induced by hunger stress (withdrawal of food for a total of 72 hours).
(§2) 48 hours before administration of the test substances, the food was withdrawn from the animals until the end of the experiment, the animals having free access to drinking water.
(§3) 24 hours after oral administration of the product, the animals were sacrificed and the stomachs were removed, cut along the lesser curvature, cleaned under running water and inspected for lesions in the mucous membrane. All the macroscopically visible lesions of the mucosa in the glandular atomach were regarded as ulcers. The proportion of animals with ulcers per dose was determined.
(§4) The test substances were administered as a solution in CMC suspension in a volume of 1 ml/100 g of body weight. The UD50 (dose at which 50% of the animals had ulcers) was determined with the aid of Probit analysis and the confidence range was determined by the method of Fieller.

mice = assay: Acetic acid extension test on mice (analgesic action); details: Mus musculus, po; for ED50: read-out: Analgesic action ED50, acetic acid extension test (Mouse); for responders at 158 mg/kg: read-out: Animals which showed analgesic effect in % after an oral dose of 158 mg/kg
Protocol: (§5) (a) Acetic acid extension test on mice in accordance with the method of R. Koster et al., Fed. Prod.
(§6) Female mice of a N.M.R.I. strain with a body weight (BW) of between 21 and 28 g were used as the experimental animals. Groups of in each case 12 animals received 0.1 ml/10 g BW of a 0.6% strength acetic acid solution, injected intraperitoneally. The test substances were administered 30 minutes beforehand. Immediately after the acetic acid injection, the animals were placed individually and the typical extension movements occurring within 15 minutes were counted, these consisting of brief flexing of the abdominal muscles with withdrawal of the sides and subsequent extension of the rear of the body and of at least one rear extremity.
(§7) The test substances were administered orally in a volume of 10 ml/kg BW in 1% strength aqueous carboxymethylcellulose (CMC) suspension.

[3] = as above; details: mouse, in vivo, po
Protocol: as §5, §6, §7

in vivo = assay: in vivo; set-up: species or system rat (male and female Wistar); details: po, rat, administered orally, read-out: Toxicity LD50
Protocol: The animals were used in the experiment after being fasted for about 18 hours and only received food again five hours after administration of the product. After a three-week observation period, they were sacrificed with chloroform and autopsied. The organs were assessed macroscopically. The test compounds were dissolved in 1% strength CMC suspension and administered to the rats through a stomach tube in a volume of 5 ml/kg BW.

rats [4] = assay: Modified Randall-Selitto hyperalgesia test on rats (analgesic action); details: Rattus norvegicus, po, 2 h, read-out: Analgesic action ED50, Randall-Selitto test (Rat)
Protocol: (§8) (b) Modified Randall-Selitto hyperalgesia test on rats in accordance with the method of Atkinson et al., J. Pharm. Pharmac.
(§9) Male Sprague-Dawley rats with a body weight of 200 to 300 g were used as the experimental animals. The experimental animals were given a subplantar injection of 0.2 ml of brewer's yeast suspension (40% of yeast in 0.9% strength NaCl solution) into the left hind paw under mild ether anaesthesia. After 5 hours, the gait of the animals over a metal grating was evaluated according to the following scale:
(§10) The evaluation was effected by determining the percentage of animals evaluated with stage 1 or 0.5, two animals given 0.5 being regarded as showing an analgesic effect.
(§11) The test substances were administered orally, to animals which had been fasted for 15 hours, in CMC suspension in a volume of 10 ml/kg BW two hours before the evaluation of the animals. In order to exclude subjective influences, the evaluation was performed by two people independently of one another and without knowledge of the pretreatment of the animals (n=10/dose). The ED50 values were determined with the aid of linear regression in accordance with the method of Fieller and Sidak.

[5] = as above; details: rat, in vivo, po
Protocol: as §8, §9, §10, §11

gastric mucosa = assay: Gastrointestinal ulcerogenicity; type: in vivo, rat (male Sprague-Dawley); details: doses of up to 400 mg/kg, rat, oral
Protocol: as §1, §2, §3, §4

rats [6] = assay: Antipyretic action, yeast fever test on rats; type: in vivo, rat (female Sprague-Dawley); details: for Reduction in body temperature at 60 min / Reduction in body temperature at 120 min / Reduction in body temperature at 180 min / Reduction in body temperature at 240 min: rat, orally
Protocol: The investigations were carried out on female Sprague-Dawley rats with a body weight of 150 g and fed on drinking water ad libitum and a standard diet. […] The body temperature was measured rectally by means of second thermometers at room temperature (24° C.). The number of animals was n=6 per dose. The average reduction in body temperature in comparison with the simultaneous value of the untreated control animals was recorded.

isolated pig ureter = assay: Inhibition of potassium chloride-induced spasms on the isolated pig ureter
Description: In contrast, the compounds of the formula I exert a significant inhibiting action in this experimental design.

[7] = biliary, gastrointestinal and urogenital tract; cited from earlier work

CC(=O)Oc1ccccc1C(=O)O [Acetylsalicylic acid, reference compound]
Inhibition of peripheral prostaglandin biosynthesis [1]: inhibitor of peripheral prostaglandin biosynthesis | TD50 at 24 h ([2]; administered orally, fasted, 24 h after administration, read-out: Ulcerogenicity UD50): 31 mg/kg | ED50 (mice): 138 mg/kg | responders at 158 mg/kg (mice): 48% | selectivity ratio [3]: 10.9 | LD50 at 504 h (in vivo): 1500 mg/kg | ED50 (rats [4]): 182 mg/kg | selectivity ratio [5]: 8.2

Cc1oncc1C(=O)N1CCC(C)CC1 [Example 4, 4-Methyl-1-(5-methyl-4-isoxazolylcarbonyl)-piperidine]
responders at 158 mg/kg (mice): 67%

CCc1oncc1C(=O)N1CCCCC1 [Example 2, N-(5-Ethyl-4-isoxazolylcarbonyl)-piperidine]
responders at 158 mg/kg (mice): 83%

Cc1oncc1C(=O)N1CCCCC1 [Example 1, N-(5-Methyl-4-isoxazolylcarbonyl)-piperidine]
Lesions of the mucous membrane (gastric mucosa): no lesions of the mucous membrane were detected | TD50 at 24 h [2]: > 400 mg/kg | Reduction in fever in comparison with Paracetamol (rats [6]; 50 mg/kg oral versus Paracetamol 100 mg/kg oral): both more powerful and clearly lasts longer than that of the comparison product Paracetamol | Reduction in body temperature at 60 min (rats [6]; 50 mg/kg): 1.3 °C | Reduction in body temperature at 120 min (rats [6]; 50 mg/kg): 1.6 °C | Reduction in body temperature at 180 min (rats [6]; 50 mg/kg): 1.3 °C | Reduction in body temperature at 240 min (rats [6]; 50 mg/kg): 0.8 °C | Reduction in body temperature at 60 min (rats [6]; 100 mg/kg): 2.0 °C | Reduction in body temperature at 120 min (rats [6]; 100 mg/kg): 2.0 °C | Reduction in body temperature at 180 min (rats [6]; 100 mg/kg): 1.5 °C | Reduction in body temperature at 240 min (rats [6]; 100 mg/kg): 1.1 °C | ED50 (mice): 45 mg/kg | responders at 158 mg/kg (mice): 83% | ED50 (rats [4]): 85 mg/kg | IC50 (isolated pig ureter; Sus scrofa, potassium chloride-induced spasms, read-out: ED50 (inhibition of spasms), concentration): 410 µg/mL (≈ 2110 µM)

Cc1oncc1C(=O)N1CCC(O)CC1 [Example 6, 4-Hydroxy-1-(5-methyl-4-isoxazolylcarbonyl)-piperidine]
responders at 158 mg/kg (mice): 50%

Cc1oncc1C(=O)N1CCOCC1 [Example 10, N-(5-Methyl-4-isoxazolylcarbonyl)-morpholine]
responders at 158 mg/kg (mice): 42%

Cc1noc(C)c1C(=O)N1CCCCC1 [3,5-Dimethyl-4-isoxazole-carboxylic acid piperidide, reference compound]
responders at 158 mg/kg (mice): 25%

O=C(c1cnoc1C(F)(F)F)N1CCCCC1 [Example 8, N-(5-Trifluoromethyl-4-isoxazolylcarbonyl)-piperidine]
responders at 158 mg/kg (mice): 75%

O=C(c1cnoc1)N1CCCCC1 [Example 7, N-(4-Isoxazolylcarbonyl)-piperidine]
responders at 158 mg/kg (mice): 50%

Cc1oncc1C(=O)N1CCSCC1 [Example 5, N-(5-Methyl-4-isoxazolylcarbonyl)-thiomorpholine]
responders at 158 mg/kg (mice): 59%

CCN(CC)C(=O)c1cnoc1C [5-Methyl-4-isoxazolecarboxylic acid N,N--diethylamide, reference compound]
responders at 158 mg/kg (mice): 25%

CC(=O)Nc1ccc(O)cc1 [Paracetamol, reference compound]
TD50 at 24 h [2]: > 400 mg/kg | Suitability for treating pain of spastic origin [7]: unsuitable for treating pain of spastic origin | Reduction in body temperature at 60 min (rats [6]; 100 mg/kg): 1.3 °C | Reduction in body temperature at 120 min (rats [6]; 100 mg/kg): 1.1 °C | Reduction in body temperature at 180 min (rats [6]; 100 mg/kg): 0.4 °C | Reduction in body temperature at 240 min (rats [6]; 100 mg/kg): 0 °C | ED50 (mice): 155 mg/kg | responders at 158 mg/kg (mice): 50% | ED50 (rats [4]): 334 mg/kg | Inhibiting effect on spasms (isolated pig ureter; potassium chloride): no inhibiting effect on spasms

CCCc1oncc1C(=O)N1CCCCC1 [Example 9, N-(5-Propyl-4-isoxazolylcarbonyl)-piperidine]
responders at 158 mg/kg (mice): 67%

Cc1oncc1C(=O)N1CCCC1 [Example 3, N-(5-Methyl-4-isoxazolylcarbonyl)-pyrrolidine]
responders at 158 mg/kg (mice): 83%
